Measured values: PMC3171632 (2011)

Key:
[1] = biological target: T1, LuxS (S-ribosylhomocysteinase) (Bacillus subtilis, UniProt O34667); assay: LuxS activity assay with SRH and DTNB at […] nm, […] min preincubation; format: biochemical
T1 sequence (O34667 1-157): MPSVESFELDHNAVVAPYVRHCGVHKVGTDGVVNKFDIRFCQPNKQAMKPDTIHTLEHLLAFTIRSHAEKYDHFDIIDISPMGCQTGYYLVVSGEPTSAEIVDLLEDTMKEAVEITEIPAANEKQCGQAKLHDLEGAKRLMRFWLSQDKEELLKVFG

[2] = biological target: T1, LuxS (S-ribosylhomocysteinase); assay: LuxS activity assay with SRH and DTNB at […] nm; format: biochemical

Structure (SMILES) | Ki [1] [µM] | Ki [2] [µM]
N[C@@H](CCSC[C@H]1NC(O)[C@H](O)[C@@H]1O)C(=O)O (mixture of isomers) [compound 23, S-(4-Amino-4,5-dideoxy-α/β-D-ribofuranos-5-yl)-L-homocysteine] | 3.5 | –
N[C@@H](CCSC[C@H]1NC[C@H](O)[C@@H]1O)C(=O)O [compound 12, S-(1-Amino-1,4-anhydro-1,5-dideoxy-D-ribitol-5-yl)-L-homocysteine] | – | 48
N[C@@H](CCSC[C@H]1NC(=O)[C@H](O)[C@@H]1O)C(=O)O [compound 21, S-(4-Amino-4,5-dideoxy-D-ribono-1,4-lactam-5-yl)-L-homocysteine] | – | 37
